This note sets out measurements from US10752587B2, “Homobispiperidinyl derivatives as liver X receptor beta agonists, compositions and their use” (Merck Sharp & Dohme Corp., priority 2015, dated 2020).

Experiment [1] concerns the target T1, glutathione-S-transferase (GST) tagged LXRalpha LBD (ligand binding domain) (Homo sapiens, UniProt Q13133).
T1 construct: purchased Invitrogen pv4655
T1 sequence (Q13133 209-447 limits assumed): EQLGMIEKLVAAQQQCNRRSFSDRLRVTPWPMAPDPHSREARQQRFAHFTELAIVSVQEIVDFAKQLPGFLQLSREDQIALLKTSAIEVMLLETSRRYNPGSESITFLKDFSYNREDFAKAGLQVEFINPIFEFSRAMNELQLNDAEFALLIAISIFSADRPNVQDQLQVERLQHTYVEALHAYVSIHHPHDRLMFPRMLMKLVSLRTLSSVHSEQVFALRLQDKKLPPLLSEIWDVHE
Kind of experiment: LanthaScreen TR-FRET Liver X Receptor Coactivator Assay, co-activator recruitment to LXRalpha LBD. The settings on record: for Emax: read-out: LXR alpha Activity @ max dose (%); for LXR alpha IP (nM) / pEC50: potency (Inflection Point, IP), co-activator recruitment to LXRalpha LBD, in relation to T0901317; for pEC50: read-out: LXR alpha IP. It is filed as biochemical. A digest of the protocol:
(§1)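 Compound-induced coactivator recruitment by the GST-fused ligand binding domain, detected as TR-FRET between Tb-labelled anti-GST antibody and fluorescein-tagged coactivator peptide after room-temperature incubation. IP and Emax expressed versus T0901317 as reference agonist.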
A general note: TR-FRET usually uses a lanthanide donor and a delayed reading to cut background.

Experiment [2] addresses T2, glutathione-S-transferase (GST) tagged LXRbeta LBD (ligand binding domain) (Homo sapiens, UniProt P55055).
T2 construct: purchased Invitrogen pv4658.pps
T2 sequence (P55055 222-460 limits assumed): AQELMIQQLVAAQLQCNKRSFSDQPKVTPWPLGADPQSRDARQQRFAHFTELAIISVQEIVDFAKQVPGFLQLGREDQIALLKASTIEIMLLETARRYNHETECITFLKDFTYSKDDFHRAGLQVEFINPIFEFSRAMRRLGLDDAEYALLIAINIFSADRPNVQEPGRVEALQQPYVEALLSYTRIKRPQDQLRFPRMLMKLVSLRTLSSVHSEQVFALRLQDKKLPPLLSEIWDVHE
Briefly: LanthaScreen TR-FRET Liver X Receptor Coactivator Assay, co-activator recruitment to LXRbeta LBD. It is filed as biochemical. The settings on record: for Emax: read-out: LXR beta Activity @ max dose (%); for pEC50: potency (Inflection Point, IP), co-activator recruitment to LXRbeta LBD, in relation to T0901317, read-out: LXR beta IP. In a few lines:
as §1

[3] abbreviates: efficacy at max dose, in relation to reference dual agonist T0901317.

The structures appear in SMILES notation. pEC50: −log10 of the molar value. Read-outs that look alike come from different tables or passages of the source.

In the case of `CN(C)C(=O)c1ccc(N2[C@@H]3CC[C@H]2CN(CC2CCN(C(=O)[C@](O)(c4ccccc4)C(F)(F)F)CC2)C3)cc1Cl` [Example 6-3, 2-chloro-N,N-dimethyl-4-[(1R,5S)-3-({1-[(2R)-3,3,3-trifluoro-2-hydroxy-2-phenylpropanoyl]piperidin-4-yl}methyl)-3,8-diazabicyclo[3.2.1]oct-8-yl]benzamide], the Emax in experiment [1] (setting [3]) turned out to be 18%; in experiment [2] (setting [3]) it was 37%. Moreover, the “LXR alpha IP (nM)” value in experiment [1] was “NO IP”. Also, the pEC50 in experiment [2] was 5.59.

`COc1cccc([C@@](O)(C(=O)N2CCC(CN3CCN(c4ccc(C(=O)N(C)C)c(Cl)c4)CC3)CC2)C(F)(F)F)c1` [Example 6-4, 2-chloro-N,N-dimethyl-4-[4-({1-[(2R)-3,3,3-trifluoro-2-hydroxy-2-(3-methoxyphenyl)propanoyl]piperidin-4-yl}methyl)piperazin-1-yl]benzamide]: the figures for the Emax in experiment [1] (setting [3]) and in experiment [2] (setting [3]) were 4% and 34%, respectively. Besides, the “LXR alpha IP (nM)” value in experiment [1] is “NO IP”. The pEC50 in experiment [2] was 6.72.

Consider `Cc1nc(N2CCC(CC3CCN(C(=O)[C@](O)(c4ccccc4)C(F)(F)F)CC3)CC2)ccc1C(=O)N(C)C` [Example 7-1, (R)—N,N,2-trimethyl-6-(4-((1-(3,3,3-trifluoro-2-hydroxy-2-phenylpropanoyl)piperidin-4-yl)methyl)piperidin-1-yl)nicotinamide], for which the values for the Emax in experiment [1] (setting [3]) and in experiment [2] (setting [3]) were 35% and 80%, respectively. Also, the pEC50 in experiment [1] was 6.05; in experiment [2] it was 7.72.

On to `CN(C)C(=O)c1cnc(N2CCC(CC3CCN(C(=O)[C@](O)(c4ccccc4)C(F)(F)F)CC3)CC2)cc1Cl` [Example 7-2, 4-chloro-N,N-dimethyl-6-[4-({1-[(2R)-3,3,3-trifluoro-2-hydroxy-2-phenylpropanoyl]piperidin-4-yl}methyl)piperidin-1-yl] pyridine-3-carboxamide], for which the Emax in experiment [1] (setting [3]) was 36%; in experiment [2] (setting [3]), 32%. In experiment [1], the “LXR alpha IP (nM)” value was “NO IP”. For the same compound, the pEC50 in experiment [2] was 5.33.

On to `Cc1cc(N2CCC(CC3CCN(C(=O)[C@](O)(c4ccccc4)C(F)(F)F)CC3)CC2)ncc1C(=O)N(C)C` [Example 7-3, N,N,4-trimethyl-6-[4-({1-[(2R)-3,3,3-trifluoro-2-hydroxy-2-phenylpropanoyl]piperidin-4-yl}methyl)piperidin-1-yl]pyridine-3-carboxamide], for which the Emax in experiment [1] (setting [3]) came out at 23%; in experiment [2] (setting [3]), 71%. Also, the values for the pEC50 in experiment [1] and in experiment [2] were 5.66 and 6.82, respectively.

For the compound `Cc1cc(N2CCC(CC3CCN(C(=O)C(O)(c4cccc(Cl)c4)C(F)(F)F)CC3)CC2)ncc1C(=O)N(C)C` (stereo not drawn) [Example 7-4, 6-[4-({1-[2-(3-chlorophenyl)-3,3,3-trifluoro-2-hydroxypropanoyl]piperidin-4-yl}methyl)piperidin-1-yl]-N,N,4-trimethylpyridine-3-carboxamide], in experiment [1], the pEC50 is 5.88 and the Emax came out at 19%. Moreover, in experiment [2], the pEC50 was 7.28 and the Emax came out at 63%.

With `COc1cccc([C@@](O)(C(=O)N2CCC(CC3CCN(c4ccc(C(=O)N(C)C)c(C)n4)CC3)CC2)C(F)(F)F)c1` [Example 7-5, N,N,2-trimethyl-6-[4-({1-[(2R)-3,3,3-trifluoro-2-hydroxy-2-(3-methoxyphenyl)propanoyl]piperidin-4-yl}methyl)piperidin-1-yl]pyridine-3-carboxamide], the Emax in experiment [1] (setting [3]) was 8%; in experiment [2] (setting [3]), 69%. The “LXR alpha IP (nM)” value in experiment [1] is recorded as “NO IP”. Also, in experiment [2], the pEC50 is 7.60.

For `Cc1cccc(C(O)(C(=O)N2CCC(CC3CCN(c4ccc(C(=O)N(C)C)c(C)n4)CC3)CC2)C(F)(F)F)c1` (stereo not drawn) [Example 7-6, N,N,2-trimethyl-6-[4-({1-[3,3,3-trifluoro-2-hydroxy-2-(3-methylphenyl)propanoyl]piperidin-4-yl}methyl)piperidin-1-yl]pyridine-3-carboxamide], the Emax stood at 11% in experiment [1] (setting [3]) and 70% in experiment [2] (setting [3]). The “LXR alpha IP (nM)” value in experiment [1] is recorded as “NO IP”. In addition, the pEC50 in experiment [2] was 7.34.

For `Cc1nc(N2CCC(CC3CCN(C(=O)C(O)(c4cccc(Cl)c4)C(F)(F)F)CC3)CC2)ccc1C(=O)N(C)C` (stereo not drawn) [Example 7-7, 6-[4-({1-[2-(3-chlorophenyl)-3,3,3-trifluoro-2-hydroxypropanoyl]piperidin-4-yl}methyl)piperidin-1-yl]-N,N,2-trimethylpyridine-3-carboxamide], in experiment [1], the pEC50 is 6.29 and the Emax stood at 24%. Moreover, in experiment [2], the pEC50 is 7.44 and the Emax was 95%.

As for `COc1cccc([C@@](O)(C(=O)N2CCC(CC3CCN(c4ccc(C(=O)N(C)C)c(C)n4)CC3)CC2)C(F)(F)F)c1` [Example 7-8, N,N,2-trimethhyl-6-[4-({1-[(2R)-3,3,3-trifluoro-2-hydroxy-2-(3-methoxyphenyl)propanoyl]piperidin-4-yl}methyl)piperidin-1-yl]pyridine-3-carboxamide], the “LXR alpha Activity @ max dose (%)” value in experiment [1] (setting [3]) was 6%. In experiment [2] (setting [3]), the “LXR beta Activity @ max dose (%)” value was found to be 53%. Also, the pEC50 in experiment [2] is 7.92.

`Cc1nc(N2CCC(CC3CCN(C(=O)[C@](O)(c4cc(Cl)cc(Cl)c4)C(F)(F)F)CC3)CC2)ccc1C(=O)N(C)C` [Example 7-9, 6-[4-({1-[(2R)-2-(3,5-dichlorophenyl)-3,3,3-trifluoro-2-hydroxypropanoyl]piperidin-4-yl}methyl)piperidin-1-yl]-N,N,2-trimethylpyridine-3-carboxamide]: the Emax came to 3% in experiment [1] (setting [3]) and 70% in experiment [2] (setting [3]). In addition, the “LXR alpha IP (nM)” value in experiment [1] was “NO IP”. In experiment [2], the pEC50 was 7.92.

On to `COc1cccc([C@@](O)(C(=O)N2CC(CC3CCN(c4ccc(C(=O)N(C)C)c(C)n4)CC3)C2)C(F)(F)F)c1` [Example 7-10, N,N,2-trimethyl-6-[4-({1-[(2R)-3,3,3-trifluoro-2-hydroxy-2-(3-methoxyphenyl)propanoyl]azetidin-3-yl}methyl)piperidin-1-yl]pyridine-3-carboxamide], for which the values for the Emax in experiment [1] (setting [3]) and in experiment [2] (setting [3]) were 28% and 77%, respectively. For the same compound, the figures for the pEC50 in experiment [1] and in experiment [2] were 7.70 and 6.87, respectively.

Consider `COc1cccc([C@@](O)(C(=O)N2CCC(CC3CCN(c4ccc(C(=O)N(C)C)c(C5CC5)n4)CC3)CC2)C(F)(F)F)c1` [Example 7-11, 2-cyclopropyl-N,N-dimethyl-6-[4-({1-[(2R)-3,3,3-trifluoro-2-hydroxy-2-(3-methoxyphenyl)propanoyl]piperidin-4-yl}methyl)piperidin-1-yl]pyridine-3-carboxamide], for which the figures for the Emax in experiment [1] (setting [3]) and in experiment [2] (setting [3]) were 8% and 73%, respectively. Also, the “LXR alpha IP (nM)” value in experiment [1] was “NO IP”. In addition, the pEC50 in experiment [2] is 7.72.

With `CCOc1cccc([C@@](O)(C(=O)N2CCC(CC3CCN(c4ccc(C(=O)N(C)C)c(C5CC5)n4)CC3)CC2)C(F)(F)F)c1` [Example 7-12, 2-cyclopropyl-6-[4-({1-[(2R)-2-(3-ethoxyphenyl)-3,3,3-trifluoro-2-hydroxypropanoyl]piperidin-4-yl}methyl)piperidin-1-yl]-N,N-dimethylpyridine-3-carboxamide], the Emax in experiment [1] (setting [3]) stood at 6%; in experiment [2] (setting [3]), 71%. For the same compound, the “LXR alpha IP (nM)” value in experiment [1] is given as “NO IP”. Besides, the pEC50 in experiment [2] was 7.62.

In the case of `COc1cccc([C@@](O)(C(=O)N2CCC(CC3CN(c4ccc(C(=O)N(C)C)c(C)n4)C3)CC2)C(F)(F)F)c1` [Example 7-13, N,N,2-trimethyl-6-[3-({1-[(2R)-3,3,3-trifluoro-2-hydroxy-2-(3-methoxyphenyl)propanoyl]piperidin-4-yl}methyl)azetidin-1-yl]pyridine-3-carboxamide], the Emax in experiment [1] (setting [3]) worked out at 4%; in experiment [2] (setting [3]) it was 72%. For the same compound, the “LXR alpha IP (nM)” value in experiment [1] is reported as “NO IP”. The pEC50 in experiment [2] is 5.94.

As for `CCOc1cccc([C@@](O)(C(=O)N2CCC(CC3(C)CCN(c4ccc(C(=O)N(C)C)c(C)n4)CC3)CC2)C(F)(F)F)c1` [Example 7-14, 6-[4-({1-[(2R)-2-(3-ethoxyphenyl)-3,3,3-trifluoro-2-hydroxypropanoyl]piperidin-4-yl}methyl)-4-methyl-piperidin-1-yl]-N,N,2-trimethylpyridine-3-carboxamide], the Emax amounted to 0% in experiment [1] (setting [3]) and 100% in experiment [2] (setting [3]). Moreover, in experiment [1], the “LXR alpha IP (nM)” value was “NO IP”. In addition, the pEC50 in experiment [2] is 6.98.
